Test results published in patent US11737999B2, “Amino acid compositions and methods for the treatment of post-acute sequelae of COVID-19” (AXCELLA HEALTH INC., priority 2021, dated 2023).

Experiments:
MCP1/CCL2 = MCP1/CCL2 secretion by ELISA in primary human hepatocytes with FFA + TNFα; assay type: cell-based
MCP-1 = MCP-1 chemokine secretion in primary human hepatic stellate cells stimulated with TNFα; assay type: cell-based; conditions: hepatic stellate cells, two donors
IL-6 [1] = test: IL-6 cytokine secretion in primary human hepatic stellate cells stimulated with TNFα; assay type: cell-based; conditions: hepatic stellate cells, two donors
Col1a1 = Col1a1 gene expression (RT-qPCR) in primary human hepatic stellate cells stimulated with TGFβ1; assay type: cell-based; conditions: for Col1a1 Fold Expression Relative to Control, Mean: single amino acid
Procollagen Iα1 = Procollagen Iα1 secretion (ELISA) in primary human hepatic stellate cells stimulated with TGFβ1; assay type: cell-based; conditions: hepatic stellate cells, three donors
IL-6 [2] = test: LPS-induced IL-6 secretion in primary human monocyte-derived macrophages; conditions: for IL-6 Measurements, Mean: LPS, baseline subtracted values
TNF-α = test: LPS-induced TNF-α secretion in primary human monocyte-derived macrophages; conditions: for TNF-α Measurements Mean (baseline subtracted): 0.15 ng/mL LPS
[3] = Donor 2, Conc. 749 μM (baseline)
[4] = Donor 2, Conc. 153 μM (baseline)

Compound: N=C(N)NCCC[C@H](N)C(=O)O [Arginine, L-Arginine]
- MCP1/CCL2 secretion (summary in words) (MCP1/CCL2; primary human hepatocytes, two healthy donors): increased MCP1 secretion
- MCP-1 secretion (summary in words) (MCP-1): no significant impact on MCP-1 secretion
- IL-6 secretion (summary in words) (IL-6 [1]): no significant effect on IL-6 secretion
- Col1a1 gene expression (summary in words) (Col1a1; hepatic stellate cells, three donors): did not significantly change Col1a1 gene expression in any donor
- Col1a1 Fold Expression Relative to Control, Mean (Col1a1; second donor (Table 27), 1088 μM): 0.99 fold
- Col1a1 Fold Expression Relative to Control, Mean (Col1a1; second donor (Table 27), 2720 μM): 1.15 fold
- Col1a1 Fold Expression Relative to Control, Mean (Col1a1; second donor (Table 27), 5440 μM): 1.15 fold
- Col1a1 Fold Expression Relative to Control, Mean (Col1a1; second donor (Table 29), 1088 μM): 0.95 fold
- Col1a1 Fold Expression Relative to Control, Mean (Col1a1; second donor (Table 29), 2720 μM): 0.99 fold
- Col1a1 Fold Expression Relative to Control, Mean (Col1a1; second donor (Table 29), 5440 μM): 1.02 fold
- procollagen Iα1 secretion (summary in words) (Procollagen Iα1): significantly increased procollagen Iα1 secretion in two of three donors
- LPS-induced IL-6 secretion (summary in words) (IL-6 [2]; Donor 1): increased IL-6 secretion

Compound: NC(=O)CC[C@H](N)C(=O)O [Glutamine, L-Glutamine]
- MCP1 expression relative to Control, Mean (MCP1/CCL2; Donor 1, Conc. 749 μM): 0
- MCP1 expression relative to Control, Mean (MCP1/CCL2; Donor 1, Conc. 3747 μM): −0.8981
- MCP1 expression relative to Control, Mean (MCP1/CCL2; Donor 1, Conc. 11242 μM): −9.001
- MCP1 expression relative to Control, Mean (MCP1/CCL2; Donor 1, Conc. 22484 μM): −21.8392
- MCP1 expression relative to Control, Mean (MCP1/CCL2; Donor 2, Conc. 749 μM): 2.84E−14
- MCP1 expression relative to Control, Mean (MCP1/CCL2; Donor 2, Conc. 3747 μM): −45.0574
- MCP1 expression relative to Control, Mean (MCP1/CCL2; Donor 2, Conc. 11242 μM): −90.6558
- MCP1 expression relative to Control, Mean (MCP1/CCL2; Donor 2, Conc. 22484 μM): −138.873
- MCP-1 secretion (summary in words) (MCP-1): reduced MCP1 secretion in both donors but was only statistically significant in one of two donors
- IL-6 secretion (summary in words) (IL-6 [1]): significantly reduced IL-6 secretion in both donors
- LPS-induced IL-6 secretion (summary in words) (IL-6 [2]; Donor 1): increased IL-6 secretion
- IL-6 Measurements, Mean (IL-6 [2]; Donor 1, Conc. 749 μM (baseline)): 0
- LPS-induced IL-6 secretion (summary in words) (IL-6 [2]; Donor 2): increased IL-6 secretion
- IL-6 Measurements, Mean (IL-6 [2]; [3]): 2.37E−15
- IL-6 Measurements, Mean (IL-6 [2]; Donor 2, Conc. 3747 μM): 22.52
- IL-6 Measurements, Mean (IL-6 [2]; Donor 2, Conc. 11242 μM): 63.31
- IL-6 Measurements, Mean (IL-6 [2]; Donor 2, Conc. 22484 μM): 34.39
- LPS-induced IL-6 secretion (summary in words) (IL-6 [2]; Donor 3): significantly increased IL-6 secretion
- TNF-α Measurements Mean (baseline subtracted) (TNF-α; Donor 1, Conc. 3747 μM): −45.7
- TNF-α Measurements Mean (baseline subtracted) (TNF-α; Donor 1, Conc. 11242 μM): −65.24
- TNF-α Measurements Mean (baseline subtracted) (TNF-α; Donor 1, Conc. 22484 μM): −103.07
- LPS-induced TNF-α secretion (summary in words) (TNF-α; Donor 2): increased TNF-α secretion
- TNF-α Measurements Mean (baseline subtracted) (TNF-α; [3]): −9.5E−15
- TNF-α Measurements Mean (baseline subtracted) (TNF-α; Donor 2, Conc. 3747 μM): 9.338
- TNF-α Measurements Mean (baseline subtracted) (TNF-α; Donor 2, Conc. 11242 μM): 20.04
- TNF-α Measurements Mean (baseline subtracted) (TNF-α; Donor 2, Conc. 22484 μM): 11.5
- LPS-induced TNF-α secretion (summary in words) (TNF-α; Donor 3): increased TNF-α secretion
- TNF-α Measurements Mean (baseline subtracted) (TNF-α; Donor 3, Conc. 749 μM (baseline)): 0
- TNF-α Measurements Mean (baseline subtracted) (TNF-α; Donor 3, Conc. 3747 μM): 1.936
- TNF-α Measurements Mean (baseline subtracted) (TNF-α; Donor 3, Conc. 11242 μM): 18
- TNF-α Measurements Mean (baseline subtracted) (TNF-α; Donor 3, Conc. 22484 μM): 29.14

Compound: CC(C)C[C@H](N)C(=O)O [Leucine, L-Leucine]
- MCP1 expression relative to Control, Mean (MCP1/CCL2; Donor 1, Conc. 153 μM): 5.92E−16
- MCP1 expression relative to Control, Mean (MCP1/CCL2; Donor 1, Conc. 3054 μM): 3.34
- MCP1 expression relative to Control, Mean (MCP1/CCL2; Donor 1, Conc. 7635 μM): 1.896
- MCP1 expression relative to Control, Mean (MCP1/CCL2; Donor 1, Conc. 15270 μM): −1.368
- MCP1 expression relative to Control, Mean (MCP1/CCL2; Donor 2, Conc. 153 μM): −4.7E−15
- MCP1 expression relative to Control, Mean (MCP1/CCL2; Donor 2, Conc. 3054 μM): 16.11
- MCP1 expression relative to Control, Mean (MCP1/CCL2; Donor 2, Conc. 7635 μM): −2.988
- MCP1 expression relative to Control, Mean (MCP1/CCL2; Donor 2, Conc. 15270 μM): −26.6436
- MCP-1 secretion (summary in words) (MCP-1): no significant impact on MCP-1 secretion
- IL-6 secretion (summary in words) (IL-6 [1]): no significant effect on IL-6 secretion
- IL-6 Measurements, Mean (IL-6 [2]; Donor 1, Conc. 153 μM (baseline)): 0
- LPS-induced IL-6 secretion (summary in words) (IL-6 [2]; Donor 2): increased IL-6 secretion
- IL-6 Measurements, Mean (IL-6 [2]; [4]): 7.11E−15
- IL-6 Measurements, Mean (IL-6 [2]; Donor 2, Conc. 3054 μM): 29.61
- IL-6 Measurements, Mean (IL-6 [2]; Donor 2, Conc. 7635 μM): 30.46
- IL-6 Measurements, Mean (IL-6 [2]; Donor 2, Conc. 15270 μM): 47.6
- TNF-α Measurements Mean (baseline subtracted) (TNF-α; Donor 1, Conc. 3054 μM): 42.04
- TNF-α Measurements Mean (baseline subtracted) (TNF-α; Donor 1, Conc. 7635 μM): −23.04
- TNF-α Measurements Mean (baseline subtracted) (TNF-α; Donor 1, Conc. 15270 μM): −46.21
- LPS-induced TNF-α secretion (summary in words) (TNF-α; Donor 2): increased TNF-α secretion
- TNF-α Measurements Mean (baseline subtracted) (TNF-α; [4]): 0
- TNF-α Measurements Mean (baseline subtracted) (TNF-α; Donor 2, Conc. 3054 μM): 31.74
- TNF-α Measurements Mean (baseline subtracted) (TNF-α; Donor 2, Conc. 7635 μM): 41.98
- TNF-α Measurements Mean (baseline subtracted) (TNF-α; Donor 2, Conc. 15270 μM): 46.69
